According to patent US5932709A (University of Michigan, priority 1997, dated 1999):
≈ marks a conversion by molar mass, not a printed value. Entries after “also recorded” stand apart in the source; their conditions may differ. Where a name gives a salt, the structure may show the parent alone.

Columns and labels:
[1] = as hydrochloride trihydrate; cited from earlier work
topoisomerase I = conditions: in words; hydrochloride; cited from earlier work
tumor growth = conditions: in words; cited from earlier work
carcinoma cells = conditions: in words; hydrochloride; cited from earlier work
[2] = Water solubility in phosphate buffered saline (spectrophotometric assay); type: physicochemical; conditions: aqueous buffer; water solubility; PBS pH 7.5, room temperature, 24 hr
Method: Approximately 5 mg of test compound was suspended in 1 mL of PBS in a 1.5 mL cryovial. The suspensions were mixed continuously on a Thermolyne vari-mix at room temperature for 24 hr. The suspensions were then centrifuged at 14000×g for 2 minutes to separate the undissolved materials. The supernatant fluids were diluted appropriately with PBS and the ultraviolet spectrums were recorded on a Beckman 640 DU spectrophotometer. For comparison, a standard stock (2 mg/mL in DMSO) solution was prepared for each analog. The ultraviolet spectrum of a 20 of 40 μg/mL standard working solution was measured. The water solubility of each analog was calculated based on the following formula:
Cunknown =Cstandard ×(Aunknown
where Cunknown is the concentration of the unknown solution to be determined; Cstandard is the concentration of the standard working solution (either 20 or 40 μg/mL); Astandard is the absorbance at 350 nm of the standard working solution; DDilution is the appropriate dilution factor used so that the absorbance of the unknown working solution is within the dynamic range of the UV spectrophotometer (less than 2 absorbance units).

[3] = target: T1, human placental topoisomerase I (Homo sapiens, UniProt P11387); experiment: Inhibition of topoisomerase I catalytic activity (relaxation of supercoiled SV40 DNA); type: biochemical; conditions: highest concentration tested (100 μg/mL), in words
T1 construct: purchased TopoGen; host or cells: human placenta
T1 sequence (P11387 1-765): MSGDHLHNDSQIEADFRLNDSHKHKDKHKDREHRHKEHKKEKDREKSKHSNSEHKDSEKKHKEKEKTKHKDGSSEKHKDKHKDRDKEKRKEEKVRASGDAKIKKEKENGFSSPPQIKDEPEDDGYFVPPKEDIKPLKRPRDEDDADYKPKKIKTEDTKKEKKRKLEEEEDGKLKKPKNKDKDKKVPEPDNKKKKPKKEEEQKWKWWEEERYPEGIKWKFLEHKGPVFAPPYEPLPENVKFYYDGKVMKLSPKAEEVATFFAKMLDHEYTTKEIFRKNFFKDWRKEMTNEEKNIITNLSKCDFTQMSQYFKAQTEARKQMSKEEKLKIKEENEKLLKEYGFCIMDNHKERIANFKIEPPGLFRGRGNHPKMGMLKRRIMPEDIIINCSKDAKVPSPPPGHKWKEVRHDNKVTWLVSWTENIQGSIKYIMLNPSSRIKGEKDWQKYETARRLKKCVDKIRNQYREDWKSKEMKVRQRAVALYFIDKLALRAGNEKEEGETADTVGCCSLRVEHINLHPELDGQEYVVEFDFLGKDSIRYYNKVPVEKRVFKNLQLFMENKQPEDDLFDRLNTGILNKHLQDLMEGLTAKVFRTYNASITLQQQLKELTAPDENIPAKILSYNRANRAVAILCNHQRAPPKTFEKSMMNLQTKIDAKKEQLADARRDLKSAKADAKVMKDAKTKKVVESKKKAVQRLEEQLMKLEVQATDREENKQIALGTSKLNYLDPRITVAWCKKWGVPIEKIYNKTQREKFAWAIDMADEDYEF
Method: The topoisomerase I catalytic activity was measured by converting the supercoiled SV40 DNA (Form I) to the relaxed form (Form Io). All reactions were performed in 20 μL reaction buffer (Tris-HCl, 10 mM, pH 7.5; EDTA, 1 mM; NaCl, 100 mM) with 0.25 μg SV40 DNA, 0.5 unit of human placental topoisomerase I (TopoGen) and graded concentrations of the analog tested. The reaction mixtures were incubated at 37° C. for 30 minutes. […] Ten μL of the reaction mixture was loaded onto a 1% agarose gel prepared in TAE buffer containing 2 μg/mL chloroquine; and the electrophoresis was performed at 82 volt for 4.5 hr in the TAE buffer containing 2 μg/mL chloroquine. […] The gels were then stained with 0.5 μg/mL ethidium bromide solution for 30 min or longer (if chloroquine is present during the electrophoresis step), and destained with 5 changes of deionized water. […] The DNA bands (image) on the negative were densitometrically scanned with a Molecular Dynamic Personal Densitometer. The percent inhibition of Toposiomerase I activity is calculated based on the following equation:
% Inhibition=(FSC(E+D) -FSC(E))/(FSC(C)
where FSC(E+D) represents fraction of supercoiled DNA in the presence of enzyme and drug; FSC(E) represents fraction of supercoiled DNA in the presence of enzyme alone; FSC(C) represents fraction of supercoiled DNA in the untreated SV40 DNA; the IC50 value was estimated using the same four-parameter logistic equation described in the in vitro growth inhibition studies.

tumor cells = experiment: MTT growth inhibition across tumor cell lines (P388, P388/CPT, B16, HT-29, MCF-7M); type: cell-based; conditions: vs camptothecin
Method: (§1) [See "Rapid Colorimetric Assay For Cellular Growth And Survival: Application To Proliferation And Cytotoxicity Assays," J. Immun. Meth. 65:55 (1983)]. The assay utilizes a tetrazolium salt to quantitatively measure mammalian cell survival and proliferation by colorimetric methods. In particular, MTT, a pale yellow compound with minimal absorbance, is incubated with cancerous cells in addition to (or in the absence of) a particular camptothecin analog. Living cells with active mitochondrial enzymes metabolize the MTT into a dark blue/purple formazan product with high absorbance. The exact procedure used to test the camptothecin analogs of the present invention is described below.
Exponentially growing cells (1-2×10^3 cells, unless specified otherwise) in 0.1 mL medium were seeded on day 0 in a 96-well microtiter plate. On day 1, 0.1 mL aliquots of medium containing graded concentrations of test analogs were added to the cell plates. After incubation at 37° C. in a humidified incubator for 3 days (P388, P388/CPT, B16) or 6 days (HT-29, MCF-7M), the plates were centrifuged briefly and 100 μL of the growth medium was removed. Cell cultures were incubated with 50 μL of 3-(4,5-dimethylthiazol-2-yl)-2,5-diphenyl-tetrazolium bromide [MTT, 1 mg/mL in Dulbecco's phosphate buffered saline (PBS)] for 4 hr at 37° C. The resulting purple formazan precipitate was solubilized with 200 μL of 0.04 N HCl in isopropyl alcohol. Absorbance was monitored in a BioRad Model 3550 Microplate Reader at a test wavelength of 570 nm and a reference wavelength of 630 nm. The absorbance is transferred to a PC 486 computer. The IC50 values were determined by a computer program (EZ-ED50) that fits all of the data to the following four-parameter logistic equation: […]

[4] = cited from earlier work
[5] = test system: HT-29 human colon adenocarcinoma cells; experiment: MTT growth inhibition, HT-29; type: cell-based; conditions: 144 h, HT-29, MTT, 6 days, read-out: Growth Inhibitory Activity IC50
Method: (§2) Camptothecin was used as a control to test the anti-cancer efficacy of the novel camptothecin analogs of the present invention.
(§3) Murine B16 melanoma cell line was grown in RPMI 1640 medium supplemented with 10% heat-inactivated fetal bovine serum, 2 mM L-glutamine, 50 units/mL penicillin, 50 μg/mL streptomycin, 25 μg/mL gentamicin, 0.75% sodium bicarbonate 10 mM HEPES buffer (pH 7.4), and 0.06 mg/mL AntiPPLO. Murine P388 leukemic cell line and human HT-29 colon adenocarcinoma line were maintained in RPMI 1640 medium supplemented with 10% heat-inactivated fetal bovine serum. […] MCF-7M human breast adenocarcinoma was maintained in IMEM supplemented with 5% non heat-inactivated fetal bovine serum and 1 nM insulin.
as §1
(§4) Exponentially growing cells (1-2×10^3 cells, unless specified otherwise) in 0.1 mL medium were seeded on day 0 in a 96-well microtiter plate. On day 1, 0.1 mL aliquots of medium containing graded concentrations of test analogs were added to the cell plates. After incubation at 37° C. in a humidified incubator for 3 days (P388, P388/CPT, B16) or 6 days (HT-29, MCF-7M), the plates were centrifuged briefly and 100 μL of the growth medium was removed. Cell cultures were incubated with 50 μL of 3-(4,5-dimethylthiazol-2-yl)-2,5-diphenyl-tetrazolium bromide [MTT, 1 mg/mL in Dulbecco's phosphate buffered saline (PBS)] for 4 hr at 37° C. The resulting purple formazan precipitate was solubilized with 200 μL of 0.04 N HCl in isopropyl alcohol. Absorbance was monitored in a BioRad Model 3550 Microplate Reader at a test wavelength of 570 nm and a reference wavelength of 630 nm. The absorbance is transferred to a PC 486 computer. The IC50 values were determined by a computer program (EZ-ED50) that fits all of the data to the following four-parameter logistic equation:
(§5) Y=(Amax -Amin)/(1+[X/IC^50 ])^n +Amin
(§6) where Amax is the absorbance of control cells, Amin is the absorbance of cells in the presence of highest agent concentration, IC^50 is the concentration of agent that inhibits the cell growth by 50% of control cells (based on the absorbance) and n is the slope of the curve.

[6] = test system: B16 murine melanoma cells; experiment: MTT growth inhibition, B16; type: cell-based; conditions: Mus musculus, 72 h, 3 days, read-out: Growth Inhibitory Activity IC50
Method: as §2, §3, §1, §4, §5, §6

[7] = test system: MCF-7 human breast tumor cells; experiment: MTT growth inhibition, MCF-7; type: cell-based; conditions: MCF7, 144 h, MCF-7, MTT, 6 days, read-out: Growth Inhibitory Activity IC50
Method: as §2, §3, §1, §4, §5, §6

[8] = test system: P388 murine leukemia cells; experiment: MTT growth inhibition, P388; type: cell-based; conditions: Mus musculus, 72 h, 3 days, read-out: Growth Inhibitory Activity IC50
Method: as §2, §3, §1, §4, §5, §6

[9] = test system: P388/CPT CPT-resistant murine leukemia cells; experiment: MTT growth inhibition, P388/CPT; type: cell-based; conditions: Mus musculus, 72 h, 3 days, read-out: Growth Inhibitory Activity IC50
Method: as §2, §3, §1, §4, §5, §6

What does the source list for `CCc1c2c(nc3ccc(OC(=O)N4CCC(N5CCCCC5)CC4)cc13)-c1cc3c(c(=O)n1C2)COC(=O)[C@]3(O)CC` [CPT-11, 7-ethyl-10-[4-(piperidino)-1-piperidino]carboxylcamptothecin hydrochloride]?
water solubility [1]: 32000 µg/mL; inhibition of Topoisomerase I activity (topoisomerase I): inability to inhibit Topoisomerase I activity; also recorded: lack of topoisomerase I inhibitory activity; effectiveness against tumor growth in animal studies (tumor growth): significant in vivo preclinical activity; in vitro efficacy / activity (carcinoma cells): negligible in vitro activity

Which solubility at 24 h [2] does the source give for `CCCCCC(=O)O[C@]1(CC)C(=O)OCc2c1cc1n(c2=O)Cc2cc3ccccc3nc2-1` [HAR2, camptothecin 20-n-hexanoate] here?
Its solubility at 24 h is 2.9 µg/mL (≈ 6.49 µM).

What about the “topoisomerase I inhibition” value [3] of the same compound?
Its value is “Neither the acetate (HAR3) nor the hexanoate (HAR2) inhibited the topoisomerase I activity”.

And the “reduction of growth inhibitory activity” value (tumor cells)?
The value was ~100 fold.

With `CC[C@@]1(OC(C)=O)C(=O)OCc2c1cc1n(c2=O)Cc2cc3ccccc3nc2-1` [HAR3] as the compound, how does the solubility at 24 h [2] read?
The solubility at 24 h was 6.5 µg/mL (≈ 16.6 µM).

And the “topoisomerase I inhibition” value [3]?
The value was “Neither the acetate (HAR3) nor the hexanoate (HAR2) inhibited the topoisomerase I activity”.

What about the “reduction of growth inhibitory activity” value (tumor cells) of the same compound?
The value was “approximately 10 fold”.

For `CC[C@@]1(O)C(=O)OCc2c1cc1n(c2=O)Cc2cc3ccccc3nc2-1` [camptothecin, reference compound], which solubility at 24 h [2] is on record?
Its solubility at 24 h is 20 µg/mL (≈ 57.4 µM).

What about the “side effects in human clinical studies” value ([4]; human, in vivo) of the same compound?
Its value is “vomiting and diarrhea to myelosuppression and hemorrhagic cystitis”.

What about the IC50 [5] of the same compound?
The IC50 was 0.002 µg/mL (≈ 0.00574 µM).

What about the IC50 [6] of the same compound?
Its IC50 is 0.015 µg/mL (≈ 0.0431 µM).

And the IC50 [7]?
Its IC50 is 0.001 µg/mL (≈ 0.00287 µM).

What about the IC50 [8] of the same compound?
The IC50 was 0.01 µg/mL (≈ 0.0287 µM).

And the “effectiveness against tumor growth in animal studies” value (tumor growth)?
The value was “significant efficacy in animal tumor models”.

And the IC50 [9]?
Its IC50 is 1.12 µg/mL (≈ 3.22 µM).

Which anti-cancer efficacy ([4]; sodium salt vs unmodified camptothecin, clinical trials) does the source give for `CC[C@@](O)(C(=O)O)c1cc2n(c(=O)c1CO)Cc1cc3ccccc3nc1-2` [sodium salt of camptothecin] here?
The anti-cancer efficacy was “much less than unmodified camptothecin”.
